Source: patent US20060135501A1, “Piperidinyl-thiazole carboxylic acid derivatives as angiogenesis inhibitors” (priority 2002, published 2006)
Several values for one entry are separate records, joined by “and”; a condition that tells them apart may be missing. Equal values may be shown once.

Assays:
rhVEGF165-biotin = molecular target: T1, rhVEGF165-biotin (Homo sapiens, UniProt P15692); experiment: VEGF-Binding ELISA (dose-response)
T1 sequence (P15692 27-191 isoform P15692-4): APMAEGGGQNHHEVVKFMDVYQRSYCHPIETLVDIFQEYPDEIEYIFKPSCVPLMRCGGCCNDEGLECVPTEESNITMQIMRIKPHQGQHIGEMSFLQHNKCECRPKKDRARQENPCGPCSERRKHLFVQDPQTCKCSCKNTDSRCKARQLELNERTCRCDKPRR
Description: The potency of test substances as a VEGF-neutralising moiety is measured in an ELISA format. This assay measures the solution-phase interaction between rhVEGF165-biotin and test sample. Unbound VEGF165-biotin is then immobilised on a solid-phase anti-hVEGF antibody (R&D systems MAB293). The biotin signal is detected with streptavidin-alkaline phosphatase, which gives a colorimetric signal when incubated with p-nitrophenyl phosphate. Plates are read in a spectrophotometer at 405 nm.
(§1) Any test compound that binds to VEGF165-biotin and prevents it from binding to the antibody will lower the color signal and be recognized as a “hit”. Hits were defined as compounds that show>60% inhibition.
VEGF165-biotin+assay buffer ? 0% inhibition
Soluble VEGF receptor (sflt @ 4 nM) ? 70% inhibition
(§2) The primary screening of all library compounds was done at a compound concentration of 50 μM, followed by measuring dose-response effects of “hits” between 0.05 and 500 μM for the calculation of IC50 values.
The compounds were dissolved in DMSO and it was shown that the solvent has no effect on the assay at this concentration.

[1] = test system: human umbilical vein endothelial cells (HUVEC); experiment: HUVEC proliferation assay co-stimulated with rhVEGF; assay type: cell-based
Description: The HUVEC assay measures the potency of test substances to inhibit in vitro proliferation of human umbilical vein endothelial cells (HUVEC) when co-stimulated with recombinant human vascular endothelial growth factor (rhVEGF).
HUVEC are grown under defined conditions (EGM-2 medium, 37° C., 5% CO2 and 95% humidity). They are seeded into 48-well plates using EBM medium with only 1% serum and incubated for 24 h. This is to ensure that cells are not stimulated before treatment with VEGF and test compound.
Test compounds are diluted in medium to concentrations between 0.05 and 50 μM and dosed together with VEGF165 at 12 ng/ml. This VEGF concentration was determined in a VEGF-dose-response curve to be just sub-optimal for maximum cell proliferation. Cells are incubated for 48 h at above conditions and viable cell density is measured using a tetrazolium compound (MTS). Viable cells reduce MTS into a soluble formazan product, which has an absorbance maximum at 490 nm. The absorbance is directly proportional to cell density.
EBM+1% serum (no VEGF) ? Minimum or Blank
EBM+1% serum (12 ng/ml) ? Maximum

VEGF = molecular target: T2, VEGF (Homo sapiens, UniProt P15692); experiment: Initial medium throughput ELISA assay for inhibition of VEGF (primary screening); assay type: binding; conditions: initial assessment, primary screening at compound concentration of 50 μM, repeats listed; for Inhibition (%): 50 µM
T2 sequence (P15692 27-191 isoform P15692-4): T1 sequence (P15692 27-191 isoform P15692-4)
Description: Initially the compounds were assayed for inhibition of VEGF in a medium throughput ELISA assay before detailed assessment in the HUVEC and VEGF binding assays in examples in 9 and 10. The data from this initial assessment is presented in table 5 in the column labelled “Inhibition %”.
as §1, §2

[2] = Homo sapiens, HUVEC, 48 h, Table 5, VEGF165 at 12 ng/ml, MTS, repeats listed
[3] = Table 5, VEGF165 at 12 ng/ml, 48 h, MTS, repeats listed
[4] = Table 6, first test (unmarked value)
[5] = Homo sapiens, HUVEC, Table 6, first test (unmarked value)

IC50 (rhVEGF165-biotin; Table 5, repeats listed) | inhibition at 50 µM (VEGF) | SMILES | IC50 [1, 2] | further results
153 µM | – | COc1ccc(C(N)=O)cc1NC(=O)c1csc(C2CCN(C(=O)c3c(-c4ccccc4)noc3C)CC2)n1 [Compound 1506-00404] | 10.4 µM | –
4.4 µM and 5 µM | 88% | COc1ccc(C(N)=O)cc1NC(=O)c1csc(C2CCN(C(=O)c3nnc4cc(C)nn4c3C)CC2)n1 [Compound 1506-00581, N-[5-(aminocarbonyl)-2-methoxyphenyl]-2-{1-[(4,7-dimethylpyrazolo[5,1-c][1,2,4]triazin-3-yl)carbonyl]-4-piperidinyl}-1,3-thiazole-4-carboxamide] | 30 µM | IC50 [1, 3]: 31 µM
29 µM | – | COc1ccc(C(N)=O)cc1NC(=O)c1csc(C2CCN(C(=O)Cc3c[nH]c4ccccc34)CC2)n1 [Compound 1506-00935] | – | –
16.7 µM | – | COc1ccc(C(N)=O)cc1NC(=O)c1csc(C2CCN(C(=O)Cc3ccc(F)cc3)CC2)n1 [Compound 1506-01112] | 26 µM | –
11 µM and 13.5 µM | 85% | COc1ccc(C(N)=O)cc1NC(=O)c1csc(C2CCN(C(=O)c3cc4ccccc4o3)CC2)n1 [Compound 1506-01284, N-[5-(aminocarbonyl)-2-methoxyphenyl]-2-[1-(1-benzofuran-2-ylcarbonyl)-4-piperidinyl]-1,3-thiazole-4-carboxamide] | 10.1 µM | IC50 [1, 3]: 12.6 µM
4 µM | 88% | COc1ccc(C(N)=O)cc1NC(=O)c1csc(C2CCN(C(=O)C#Cc3ccccc3)CC2)n1 [Compound 1506-01461, N-[5-(aminocarbonyl)-2-methoxyphenyl]-2-[1-(3-phenyl-2-propynoyl)-4-piperidinyl]-1,3-thiazole-4-carboxamide] | 11 µM | Inhibition (%) (VEGF): 75% and 83%
136 µM | – | COc1ccc(C(N)=O)cc1NC(=O)c1csc(C2CCN(C(=O)c3cc(OC)c4ccccc4c3)CC2)n1 [Compound 1506-01810] | 5.6 µM | –
128 µM | – | COCCOCCOCC(=O)N1CCC(c2nc(C(=O)Nc3cc(C(N)=O)ccc3OC)cs2)CC1 [Compound 1506-02159] | – | –
6.5 µM | – | C=CCSc1ncccc1C(=O)N1CCC(c2nc(C(=O)Nc3cc(C(N)=O)ccc3OC)cs2)CC1 [Compound 1506-02331, 2-(1-{[2-(allylsulfanyl)-3-pyridinyl]carbonyl}-4-piperidinyl)-N-[5-(aminocarbonyl)-2-methoxyphenyl]-1,3-thiazole-4-carboxamide] | 22.8 µM | Inhibition (%) (VEGF): 43% and 73% and 79%
105 µM | – | COc1ccc(C(N)=O)cc1NC(=O)c1csc(C2CCN(C(=O)c3c(F)cccc3Cl)CC2)n1 [Compound 1506-03039] | 4.2 µM | –
132 µM | – | COc1ccc(C(N)=O)cc1NC(=O)c1csc(C2CCN(C(=O)c3ccc(OC)c(OC)c3OC)CC2)n1 [Compound 1506-03211] | – | –
6.6 µM | 93% | COc1ccc(C(N)=O)cc1NC(=O)c1csc(C2CCN(C(=O)c3ccccc3C(F)(F)F)CC2)n1 [Compound 1506-03388] | 23 µM | Inhibition (%) (VEGF): 87% and 90%
3.6 µM | – | COc1ccc(C(=O)N2CCC(c3nc(C(=O)Nc4cc(C(N)=O)ccc4OC)cs3)CC2)cc1 [Compound 1506-03560] | 16.4 µM | –
– | 60% | COc1ccc(C(N)=O)cc1NC(=O)c1csc(C2CCN(C(=O)Cc3ccccc3Cl)CC2)n1 [Compound 1506-03737, N-[5-(aminocarbonyl)-2-methoxyphenyl]-2-{1-[(2-chlorophenyl)acetyl]-4-piperidinyl}-1,3-thiazole-4-carboxamide] | 9 µM | Inhibition (%) (VEGF): 70% and 74%
4.5 µM | 77% | COc1ccc(C(N)=O)cc1NC(=O)c1csc(C2CCN(C(=O)COc3ccc(C)c(C)c3)CC2)n1 [Compound 1506-03914, N-[5-(aminocarbonyl)-2-methoxyphenyl]-2-{1-[(3,4-dimethylphenoxy)acetyl]-4-piperidinyl}-1,3-thiazole-4-carboxamide] | 17 µM | Inhibition (%) (VEGF): 70% and 81%
16 µM and 15.5 µM | – | COc1ccc(C(N)=O)cc1NC(=O)c1csc(C2CCN(C(=O)c3ccc(OC(C)C)cc3)CC2)n1 [Compound 1506-04091] | – | –
7.3 µM and 1.5 µM | 88% | COc1ccc(C(N)=O)cc1NC(=O)c1csc(C2CCN(C(=S)Nc3ccc(N(C)C)cc3)CC2)n1 [Compound 1506-06813, N-[5-(aminocarbonyl)-2-methoxyphenyl]-2-[1-({[4-(dimethylamino)phenyl]amino}carbonothioyl)-4-piperidinyl]-1,3-thiazole-4-carboxamide] | 9.7 µM | IC50 [1, 3]: 8.2 µM
173 µM | – | CC#CCOC(=O)N1CCC(c2nc(C(=O)Nc3cc(C(N)=O)ccc3OC)cs2)CC1 [Compound 1506-07095] | – | –
142 µM | – | COc1ccc(C(N)=O)cc1NC(=O)c1csc(C2CCN(C(=O)NCCC3=CCCCC3)CC2)n1 [Compound 1506-07554] | 35 µM | –
14.8 µM | 52% | COc1ccc(C(N)=O)cc1NC(=O)c1csc(C2CCN(C(=O)N3CCN(c4ccccn4)CC3)CC2)n1 [Compound 1506-08218, N-[5-(aminocarbonyl)-2-methoxyphenyl]-2-(1-{[4-(2-pyridinyl)-1-piperazinyl]carbonyl}-4-piperidinyl)-1,3-thiazole-4-carboxamide] | 15.4 µM | Inhibition (%) (VEGF): 60% and 62%
11 µM | – | COc1ccc(C(N)=O)cc1NC(=O)c1csc(C2CCN(C(=O)Cc3ccc(SC)cc3)CC2)n1 [Compound 1506-08674] | – | –
54 µM and 126 µM | 91% | COc1ccc(C(N)=O)cc1NC(=O)c1csc(C2CCN(C(=O)c3cnn(-c4ccccc4)c3)CC2)n1 [Compound 1506-08772] | 25 µM | –
– | – | NC(=O)c1ccc(Cl)c(NC(=O)c2csc(C3CCN(C(=O)Cc4ccccc4Cl)CC3)n2)c1 [Compound 1633-00375] | – | IC50 (rhVEGF165-biotin; Table 6, **tested after re-synthesised, $solubility problems): 9 µM; IC50 (rhVEGF165-biotin; [4]): 5 µM; IC50 ([1]; Homo sapiens, HUVEC, Table 6, **tested after re-synthesised, $solubility problems): 17 µM; IC50 [1, 5]: 0.448 µM
– | – | NC(=O)c1ccc(Cl)c(NC(=O)c2csc(C3CCN(C(=O)CCc4ccco4)CC3)n2)c1 [Compound 1633-00377] | – | IC50 (rhVEGF165-biotin; [4]): 5 µM; IC50 [1, 5]: 0.222 µM
– | – | C=CCCOc1ccc(C(=O)N2CCC(c3nc(C(=O)Nc4cc(C(N)=O)ccc4Cl)cs3)CC2)cc1 [Compound 1633-00884] | – | IC50 (rhVEGF165-biotin; [4]): 30 µM; IC50 [1, 5]: 0.649 µM
– | – | NC(=O)Cc1ccc(Cl)c(NC(=O)c2csc(C3CCN(C(=O)CCc4ccco4)CC3)n2)c1 [Compound 1633-01861] | – | IC50 (rhVEGF165-biotin; [4]): 13 µM; IC50 [1, 5]: 0.803 µM

SMILES | IC50 (rhVEGF165-biotin; Table 5, repeats listed) | inhibition at 50 µM (VEGF) | IC50 [1, 2] | further results
COc1ccc(C(N)=O)cc1NC(=O)c1csc(C2CCN(C(=O)C3C(C)(C)C3(C)C)CC2)n1 [Compound 1506-01638] | 71 µM and > 100 µM | 89% | 5.4 µM | IC50 [1, 3]: 6 µM
